The nature of data set [1]: Volatile nitrosamine content of cook-out fat from fried nitrite-cured bacon slices streaked with test compound. The settings on record: for blocking of formation of nitrosamines: 20 ppm level of incorporation in the meat; for inhibition of nitrosamine formation: in comparison with the untreated controls. From the text: The mechanism by which the 1,2-dihydro- and 1,2,3,4-tetrahydro-6-hydroxyquinoline nitroxides interfere with the formation of nitrosamines at high temperature is not completely understood. However, the invention is not limited by any particular theory of operation. It has been shown by a series of tests with representative compounds that up to 100% of the nitrosamines which normally appear in fried bacon have been eliminated.
The nitroxide compounds from ethoxyquin and from dihydroethoxyquin, prepared as in Examples 1 and 2, respectively, were dissolved in separate portions of winterized soya oil to provide a 4.5% concentration and the resulting solutions were streaked on bacon slices, which had undergone a conventional nitrite cure and plant processing, in quantities providing levels of 1,2-dihydro-2,2,4-trimethyl-6-hydroxy-quinoline nitroxide of from 1 ppm to 100 ppm in the meat for one series of tests and levels of 1 - 20 ppm of the corresponding 1,2,3,4-tetrahydroquinoline nitroxide compound in the meat for another series of tests. Control slices of bacon were streaked with the oil alone. The bacon slices were fried under standardized conditions and the cook-out fat was analyzed for volatile nitrosamine content.

Another data set relates to experimental animals. The settings on record: tests on experimental animals; cited from earlier work.

Regarding “1,2,3,4-tetrahydro-2,2,4-trimethyl-6-hydroxy-quinoline nitroxide [Nitroxide from Dihydro Ethoxyquin]”, in data set [1], the “blocking of formation of nitrosamines” value is “essentially blocked formation of nitrosamines”. Also, the “Nitrosamines In Cook-Out Fat, Test Product” value (from here on “Nitrosamines In Cook-Out Fat”) came out at 3 ppb in data set [1] (Example 13: 20 ppm in meat, control product 35 ppb); 13 ppb in data set [1] (Example 14: 10 ppm in meat, control product 35 ppb); 20 ppb in data set [1] (Example 15: 1 ppm in meat, control product 35 ppb); 2 ppb in data set [1] (Example 16: 20 ppm in meat, control product 36 ppb, figures below 3 ppb not reliable); 6 ppb in data set [1] (Example 17: 10 ppm in meat, control product 36 ppb); 22 ppb in data set [1] (Example 18: 1 ppm in meat, control product 36 ppb). For the same compound, the “inhibition of nitrosamine formation” value in data set [1] is given as “excellent inhibition of nitrosamine formation”.

For “1,2-dihydro-2,2,4-trimethyl-6-hydroxy-quinoline nitroxide [Nitroxide from Ethoxyquin]”, the “blocking of formation of nitrosamines” value in data set [1] was “essentially blocked formation of nitrosamines”. Besides, the “Nitrosamines In Cook-Out Fat” value is on record as 0 ppb in data set [1] (Example 3: 100 ppm in meat, control product 18 ppb, figures below 3 ppb not reliable); 0 ppb in data set [1] (Example 4: 50 ppm in meat, control product 19 ppb, figures below 3 ppb not reliable); 3 ppb in data set [1] (Example 5: 10 ppm in meat, control product 19 ppb); 13 ppb in data set [1] (Example 6: 1 ppm in meat, control product 19 ppb); 0 ppb in data set [1] (Example 7: 20 ppm in meat, control product 8 ppb, figures below 3 ppb not reliable); 0 ppb in data set [1] (Example 8: 10 ppm in meat, control product 8 ppb, figures below 3 ppb not reliable). Also, the “Nitrosamines In Cook-Out Fat” value in data set [1] (Example 9: 1 ppm in meat, control product 8 ppb, figures below 3 ppb not reliable) came to 2 ppb; in data set [1] (Example 10: 20 ppm in meat, control product 38 ppb, figures below 3 ppb not reliable) it was 2 ppb; in data set [1] (Example 11: 10 ppm in meat, control product 38 ppb), 5 ppb; in data set [1] (Example 12: 1 ppm in meat, control product 38 ppb), 16 ppb. Further, the “inhibition of nitrosamine formation” value in data set [1] is reported as “excellent inhibition of nitrosamine formation”.

Take `O=NN1CCCC1` [N-nitrosopyrrolidine]: the carcinogenicity result in the data set with experimental animals is listed as “carcinogenic”.

As to `CN(C)N=O` [dimethylnitrosamine], the carcinogenicity result with experimental animals is “carcinogenic”.
